Drawing on PubChem BioAssay (NCI), this text covers TGI and GI50 for 14 compounds.

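How tested: cells in 96-well plates exposed to compound for 48 hours at five concentrations. At the GI50, growth is halved. At the TGI there is no net growth.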 Bounds are passed on as bounds.

Holding throughout (experiment): NCI-60 cell line screen, 48 h
The test system of assay [1] is NCI-H226 lung.
The subject of assay [2] is HOP-62 NSCLC.
Assay [3] concerns MOLT-4 leukemia.
Assay [4] has as its system NCI-H522 lung.
The subject of assay [5] is DLD-1 colon.
The subject of assay [6] is SK-MEL-5 melanoma.
Assay [7] concerns LXFL 529 NSCLC.
The subject of assay [8] is HOP-18 NSCLC.
For assay [9], the system named is T-47D breast.
Assay [10] has as its system MDA-MB-435.

Regarding `COc1ccc(CCc2cc(OC)c(O)c(OC)c2)cc1`, the TGI in assay [1], in assay [2], in assay [3], in [4], in assay [5] and in assay [6] was > 100 µM in each case. The TGI in assay [7] was > 100 µM.
With `C[Si](C)(C)C(Sc1ccccc1)(Sc1ccccc1)Sc1ccccc1`, the TGI in [3], in assay [5], in assay [6] and in assay [7] was > 100 µM throughout.
As to `COC(=O)C(=O)C(C(=O)C(=O)Nc1cc(C)ccc1C)c1nc2ccc(C(=O)c3ccccc3)cc2[nH]c1=O` (centres undefined), the TGI in [1], in assay [8], in assay [3], in assay [4], in assay [6] and in assay [7] was > 100 µM each time.
Take `C=C(CCCO)[C@@H]1CC[C@@](C)(O)[C@H]1C`: the TGI in assay [1], in [8], in assay [3], in assay [4], in [6] and in assay [7] was > 100 µM each time.
For the compound `C/C(=N\NC(=O)CC(=O)N(C(=O)c1ccc(Cl)cc1)c1ccc(C)cc1)c1ccccc1O`, the TGI in [1], in assay [2], in assay [3], in assay [4], in [5] and in assay [6] was > 100 µM throughout. Moreover, the TGI in assay [7] is > 100 µM.
As for `CCN(CC)CCNc1ccc2nc(C)n3c4ccc(O)cc4c(=O)c1c23`, the TGI in assay [1] amounted to 2.13 µM; in assay [2], 18.8 µM; in [3], 0.293 µM; in assay [4], 2.24 µM; in assay [5] it was 10.5 µM; in assay [6], 15.6 µM. The same compound showed a TGI in assay [7] of 16.5 µM.
As to `C1C[OH+]CC[OH+]CCNCC[OH+]CC[OH+]CCN1.Cl.[Cl-].[Pt+4]`, the GI50 in assay [8] is > 100 µM; in assay [3] it was > 100 µM; in [4], 2.27 µM; in assay [5] it was > 100 µM; in [6] it was > 100 µM; in [7], > 100 µM. The TGI in assay [8] was > 100 µM; in [3], > 100 µM; in assay [4] it was 6.47 µM; in assay [5] it was > 100 µM; in assay [6], > 100 µM; in assay [7], > 100 µM.
Consider `CCN(CC)CCn1c2ccccc2c(=O)c2c(OC)ccc(OC)c21`, for which the TGI in [1] is 97.3 µM; in assay [2], > 100 µM; in [3], > 100 µM; in assay [4] it was > 100 µM; in [7], > 100 µM.
Regarding `CCOCc1cc(=O)c2c(OC)cc3c(c2o1)CCC(C)(C)O3`, the TGI in assay [2], in [8], in [3], in assay [4], in [5] and in [6] was > 100 µM each time. Moreover, in assay [7], the TGI was > 100 µM.
For `CC(C)C1N2CCCCC2[C@@H]2c3[nH]c4ccccc4c3CCN12` (some centres undefined), the TGI in assay [2], in assay [8], in assay [3], in assay [5], in assay [6] and in [7] was > 100 µM throughout.
As for `Cc1ccc(NC(=O)OCC(COc2ccc(Cl)cc2Cl)OC(=O)Nc2ccc(C)cc2)cc1` (centres undefined), the TGI in assay [1], in assay [2], in [8], in assay [5] and in assay [7] was > 100 µM each time.
For the compound `C[CH2][Sn]([CH2]C)([O]C(=O)c1ccc(OC)c(OC)c1OC)[O]C(=O)c1ccc(OC)c(OC)c1OC`, the GI50 in [1] was 19.7 µM; in assay [2], > 100 µM; in assay [9], 12.7 µM; in assay [8], 18.7 µM; in [3] it was 34.1 µM; in [4], 2.42 µM. Besides, the values for the GI50 in assay [6], in [7] and in assay [10] were 99.2 µM, 12.6 µM and > 100 µM, respectively. The TGI in assay [1] is 46 µM; in assay [2], > 100 µM; in assay [9], 26.1 µM; in [8], 32.7 µM; in assay [3], > 100 µM; in assay [4], 8.54 µM. Besides, the values for the TGI in assay [6], in assay [7] and in assay [10] were > 100 µM, 25.3 µM and > 100 µM, respectively.
As for `CC1C2CC=CC(=O)[C@@]2(C)CCC12OCCO2` (some centres undefined), the TGI is > 100 µM in assay [1]; > 100 µM in assay [2]; > 100 µM in assay [3]; > 100 µM in assay [4]; > 100 µM in assay [5]; 65.4 µM in assay [6]. Besides, the TGI in assay [7] is > 100 µM.
As for `CCCCN(CCCC)CCCn1cnc2ncccc2c1=O`, the TGI in assay [1], in [2], in [3], in assay [4], in assay [5] and in assay [6] was > 100 µM throughout. In assay [7], the TGI was > 100 µM.
